Measurements reported in ChEMBL document CHEMBL1909562, “Carbazole-containing arylcarboxamides as BACE1 inhibitors” (Bioorg Med Chem Lett, 2011).

Biological target: Beta-secretase 1 (Homo sapiens, UniProt P56817)
Assay: Inhibition of BACE1 by fluorescence-based assay

Beta-secretase 1, sequence (P56817 whole entry): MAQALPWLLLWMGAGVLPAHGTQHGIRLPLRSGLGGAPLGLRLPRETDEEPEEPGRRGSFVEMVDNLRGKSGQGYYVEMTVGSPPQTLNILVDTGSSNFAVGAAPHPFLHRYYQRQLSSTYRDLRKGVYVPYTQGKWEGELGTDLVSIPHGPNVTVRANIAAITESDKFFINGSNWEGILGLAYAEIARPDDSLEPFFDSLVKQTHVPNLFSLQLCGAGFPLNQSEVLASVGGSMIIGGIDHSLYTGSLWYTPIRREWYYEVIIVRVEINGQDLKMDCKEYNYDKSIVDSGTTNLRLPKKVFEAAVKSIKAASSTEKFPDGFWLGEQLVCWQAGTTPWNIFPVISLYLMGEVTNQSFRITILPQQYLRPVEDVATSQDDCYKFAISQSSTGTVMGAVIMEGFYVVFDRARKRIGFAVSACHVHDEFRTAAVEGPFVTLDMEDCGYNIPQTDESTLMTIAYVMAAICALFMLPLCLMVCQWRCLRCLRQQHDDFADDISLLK

`O=C(c1ccccc1)N(CC(O)Cn1c2ccccc2c2ccccc21)c1ccccc1` (centres undefined) and `O=C(c1ccccc1)N(Cc1ccccc1)CC(O)Cn1c2ccccc2c2ccccc21` (centres undefined) cannot be ordered by IC50: over 10 µM for the first, over 10 µM for the second.

Going from `O=C(c1ccc(Cl)cc1)N(CC(O)Cn1c2ccccc2c2ccccc21)c1ccccc1` (centres undefined) to `O=C(c1ccccc1)N(CC(O)Cn1c2ccccc2c2ccccc21)c1ccc(Cl)cc1` (centres undefined), the IC50 rises from 4.7 µM to over 10 µM. The first is the more potent here.

Going from `COc1ccc(C(=O)N(CC(O)Cn2c3ccccc3c3ccccc32)c2ccccc2)cc1` (centres undefined) to `COc1ccc(C(=O)N(Cc2ccccc2)CC(O)Cn2c3ccccc3c3ccccc32)cc1` (centres undefined), the IC50 rises from 3.8 µM to over 10 µM.

Compared with `O=C(c1ccc(Cl)c(Cl)c1)N(CC(O)Cn1c2ccccc2c2ccccc21)c1ccccc1` (centres undefined), `O=C(c1ccc(Cl)c(Cl)c1)N(Cc1ccccc1)CC(O)Cn1c2ccccc2c2ccccc21` (centres undefined) is higher in IC50: 2.5 µM for the first, over 10 µM for the second.

`O=C(c1ccccc1)N(CC(O)Cn1c2ccccc2c2ccccc21)c1ccc(C(F)(F)F)cc1` (centres undefined) and `O=C(c1ccccc1)N(CC(O)Cn1c2ccccc2c2ccccc21)c1ccc(F)cc1` (centres undefined) cannot be ordered by IC50: over 10 µM for the first, over 10 µM for the second.

`O=C(c1ccccc1)N(CC(O)Cn1c2ccccc2c2ccccc21)c1ccc([N+](=O)[O-])cc1` (centres undefined) and `Cc1ccc(N(CC(O)Cn2c3ccccc3c3ccccc32)C(=O)c2ccccc2)cc1` (centres undefined) cannot be ordered by IC50: over 10 µM for the first, over 10 µM for the second.

`O=C(c1ccc(Cl)cc1)N(Cc1ccccc1)CC(O)Cn1c2ccccc2c2ccccc21` (centres undefined) and `O=C(c1ccccc1)N(Cc1ccc(Cl)cc1)CC(O)Cn1c2ccccc2c2ccccc21` (centres undefined) cannot be ordered by IC50: over 10 µM for the first, over 10 µM for the second.

`Cc1ccc(CN(CC(O)Cn2c3ccccc3c3ccccc32)C(=O)c2ccccc2)cc1` (centres undefined) and `COc1ccc(CN(CC(O)Cn2c3ccccc3c3ccccc32)C(=O)c2ccccc2)cc1` (centres undefined) cannot be ordered by IC50: over 10 µM for the first, over 10 µM for the second.

First: O=C(c1ccccc1)N(CCc1ccccc1)CC(O)Cn1c2ccccc2c2ccccc21 (centres undefined)
Second: O=C(c1ccccc1)N(CC(O)Cn1c2ccccc2c2ccccc21)C1CCCCC1 (centres undefined)
The IC50 of the first is lower: 4.8 µM for the first, over 10 µM for the second.

`OC(CNc1cccc2ccccc12)Cn1c2ccccc2c2ccccc21` (centres undefined) gave an IC50 of 2.99 µM.
